These results are taken from US9586945B2, “Aminochromane, aminothiochromane and amino-1,2,3,4-tetrahydroquinoline derivatives, pharmaceutical compositions containing them, and their use in therapy” (AbbVie Deutschland GmbH & Co. KG, priority 2013, dated 2017).

Test system in one data set: not listed separately
Briefly: Metabolic stability in human liver microsomes. Type of data set: in vitro ADME. To be noted: 0.5 μM test substance, NADPH, 37° C., scaled microsomal clearance, examples marked * tested as fumarate salts. As to the method:
Metabolic stability was determined as follows:
0.5 μM test substance was preincubated together with human liver microsomes (0.25 mg of microsomal protein/[…]) in 0.05 M potassium phosphate buffer of pH 7.4 in microtiter plates at 37° C. for 5 min. The reaction was started by adding NADPH (1.0 mM). After 0, 5, 10, 15, 20 and 30 min the reaction was stopped and cooled with twice the amount of quench solution consisting of acetonitrile/methanol 1:1, and containing 0.2 μM carbutamide. The samples were frozen until analyzed. The remaining concentration of undegraded test substance was determined by LC MSMS. The half-life (T1/2) was determined from the gradient of the signal of test substance/unit time plot, al-lowing to calculate the half-life of the test substance, assuming first order kinetics, from the de-crease in the concentration of the compound with time. The microsomal clearance (mClint) was calculated as follows: mClint=((ln(2)/t1/2)/Microsomal Protein Concentration (mg/ml))*1000, leading to the unit of uL/min/mg. The scaled clearance (mClin_scaled) was calculated as mCLint_scaled=m CLint*(Microsomal Yield (mg/kg BW))/1000000*60, leading to the units L/hr/kg. The Microsomal Yield is defined by the specifics of the used microsomes. Calculations were modified from references: Di, The Society for Biomolecular Screening, 2003, 453-462; Obach, DMD, 1999 vol 27. N 11, 1350-1359.
Background: Liver microsomes are a subcellular fraction often used to study metabolism.
On to `CN[C@H]1COc2cc(F)c(N3CC(NS(=O)(=O)CC4CC4)C3)cc2[C@H]1Cc1ccccc1` (relative stereo) [Example 19a, Cis-N-(1-(4-benzyl-7-fluoro-3-(methylamino)chroman-6-yl)azetidin-3-yl)-1-cyclopropylmethanesulfonamide], for which the “human mCl” value is reported as “≦50 L/h/Kg”.

For the compound `CN[C@H]1COc2cc(F)c(N3CC(NS(=O)(=O)CC4CC4)C3)cc2[C@@H]1Cc1ccccc1` (relative stereo) [Example 19b, trans-N-(1-(4-benzyl-7-fluoro-3-(methylamino)chroman-6-yl)azetidin-3-yl)-1-cyclopropylmethanesulfonamide], the “human mCl” value is reported as “≦50 L/h/Kg”.

Consider `CN[C@H]1COc2cc(F)c(N3CC(NS(=O)(=O)c4cnn(C)c4)C3)cc2[C@@H]1Cc1ccccc1` (relative stereo) [Example 17b, trans-N-(1-(4-benzyl-7-fluoro-3-(methylamino)chroman-6-yl)azetidin-3-yl)-1-methyl-1H-pyrazole-4-sulfonamide], for which the “human mCl” value is listed as “≦5 L/h/Kg”.

Turning to `CCCS(=O)(=O)NC1CN(c2cc3c(cc2F)OC[C@H](NC)[C@H]3Cc2ccccc2)C1` (relative stereo) [Example 16b, trans-N-(1-(4-benzyl-7-fluoro-3-(methylamino)chroman-6-yl)azetidin-3-yl)propane-1-sulfonamide], the “human mCl” value is “≦5 L/h/Kg”.

Take `CCCS(=O)(=O)NC1CN(c2cc3c(cc2F)OC[C@H](NC)[C@@H]3Cc2ccccc2)C1` (relative stereo) [Example 16a, Cis-N-(1-(4-benzyl-7-fluoro-3-(methylamino)chroman-6-yl)azetidin-3-yl)propane-1-sulfonamide]: the “human mCl” value is listed as “≦5 L/h/Kg”.

As to `CCS(=O)(=O)NC1CN(c2cc3c(cc2F)OC[C@H](NC)[C@H]3Cc2ccccc2)C1` (relative stereo) [Example 14b, trans-N-(1-(4-benzyl-7-fluoro-3-(methylamino)chroman-6-yl)azetidin-3-yl)ethanesulfonamide], the “human mCl” value is reported as “≦5 L/h/Kg”.

For `CN[C@H]1COc2cc(F)c(N3CC(NS(=O)(=O)c4cn(C)nn4)C3)cc2[C@H]1Cc1ccccc1` (relative stereo) [Example 18a, Cis-N-(1-(4-benzyl-7-fluoro-3-(methylamino)chroman-6-yl)azetidin-3-yl)-1-methyl-1H-1,2,3-triazole-4-sulfonamide], the “human mCl” value is given as “≦50 L/h/Kg”.

In the case of `CN[C@H]1COc2cc(F)c(N3CC(NS(=O)(=O)c4cn(C)cn4)C3)cc2[C@H]1Cc1ccccc1` (relative stereo) [Example 15a, Cis-N-(1-(4-benzyl-7-fluoro-3-(methylamino)chroman-6-yl)azetidin-3-yl)-1-methyl-1H-imidazole-4-sulfonamide], the “human mCl” value is recorded as “≦5 L/h/Kg”.

Regarding `CCS(=O)(=O)NC1CN(c2cc3c(cc2F)OC[C@H](NC)[C@@H]3Cc2ccccc2)C1` (relative stereo) [Example 14a, Cis-N-(1-(4-benzyl-7-fluoro-3-(methylamino)chroman-6-yl)azetidin-3-yl)ethanesulfonamide], the “human mCl” value is recorded as “≦5 L/h/Kg”.

Turning to `CN[C@H]1COc2cc(F)c(N3CC(NS(=O)(=O)c4cnn(C)c4)C3)cc2[C@H]1Cc1ccccc1` (relative stereo) [Example 17a, Cis-N-(1-(4-benzyl-7-fluoro-3-(methylamino)chroman-6-yl)azetidin-3-yl)-1-methyl-1H-pyrazole-4-sulfonamide], the “human mCl” value is “≦5 L/h/Kg”.

Turning to `CN[C@H]1COc2cc(F)c(N3CC(NS(=O)(=O)c4cn(C)nn4)C3)cc2[C@@H]1Cc1ccccc1` (relative stereo) [Example 18b, trans-N-(1-(4-benzyl-7-fluoro-3-(methylamino)chroman-6-yl)azetidin-3-yl)-1-methyl-1H-1,2,3-triazole-4-sulfonamide], the “human mCl” value is given as “≦5 L/h/Kg”.

Regarding `CN[C@H]1COc2cc(F)c(N3CC(NS(=O)(=O)c4cn(C)cn4)C3)cc2[C@@H]1Cc1ccccc1` (relative stereo) [Example 15b, trans-N-(1-(4-benzyl-7-fluoro-3-(methylamino)chroman-6-yl)azetidin-3-yl)-1-methyl-1H-imidazole-4-sulfonamide], the “human mCl” value is recorded as “≦5 L/h/Kg”.

The target of the next data set is human GlyT1c transporter (Homo sapiens (Human), UniProt P48067). Briefly: Radioligand binding assay using recombinant CHO cell membranes expressing human GlyT1. To be noted: examples marked * tested as fumarate salts, read-out: radioligand binding Kiapp.
human GlyT1c transporter, sequence (P48067 whole entry): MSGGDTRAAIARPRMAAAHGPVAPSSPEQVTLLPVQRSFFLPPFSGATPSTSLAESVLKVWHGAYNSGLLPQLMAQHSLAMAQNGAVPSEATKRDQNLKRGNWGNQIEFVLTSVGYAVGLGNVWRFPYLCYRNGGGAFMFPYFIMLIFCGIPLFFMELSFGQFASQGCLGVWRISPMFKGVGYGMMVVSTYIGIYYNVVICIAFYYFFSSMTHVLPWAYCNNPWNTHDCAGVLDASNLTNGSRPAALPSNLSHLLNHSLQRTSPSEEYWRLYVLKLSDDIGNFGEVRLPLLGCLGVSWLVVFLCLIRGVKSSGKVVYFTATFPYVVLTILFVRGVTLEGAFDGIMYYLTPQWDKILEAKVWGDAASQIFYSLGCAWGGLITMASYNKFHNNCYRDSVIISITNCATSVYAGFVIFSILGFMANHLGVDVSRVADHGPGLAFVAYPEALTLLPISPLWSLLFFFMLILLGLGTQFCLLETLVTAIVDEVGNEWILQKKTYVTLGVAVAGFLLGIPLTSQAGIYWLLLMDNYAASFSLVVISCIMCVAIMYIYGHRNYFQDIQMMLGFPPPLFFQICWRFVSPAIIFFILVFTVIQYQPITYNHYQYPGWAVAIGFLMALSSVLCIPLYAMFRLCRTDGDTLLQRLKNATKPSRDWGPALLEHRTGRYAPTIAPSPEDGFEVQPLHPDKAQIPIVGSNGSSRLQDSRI
Regarding `CNC1COc2cc(F)c(N3CC(NS(=O)(=O)CC4CC4)C3)cc2C1Cc1ccccc1` (single isomer, unassigned) [Example 19a, Cis-N-(1-(4-benzyl-7-fluoro-3-(methylamino)chroman-6-yl)azetidin-3-yl)-1-cyclopropylmethanesulfonamide], the Ki was at most 10 nM.

Take `CCn1cc(S(=O)(=O)NC2CN(c3cc4c(cc3F)OC[C@@H](N3CCC3)[C@H]4Cc3ccccc3)C2)nn1` (relative stereo) [Example 7, Cis-N-(1-(3-(azetidin-1-yl)-4-benzyl-7-fluorochroman-6-yl)azetidin-3-yl)-1-ethyl-1H-1,2,3-triazole-4-sulfonamide]: the Ki was at most 100 nM.

For `CCCS(=O)(=O)NC1CN(c2cc3c(cc2F)OCC(NC)C3Cc2ccccc2)C1` (single isomer, unassigned) [Example 16a, Cis-N-(1-(4-benzyl-7-fluoro-3-(methylamino)chroman-6-yl)azetidin-3-yl)propane-1-sulfonamide], the Ki was at most 10 nM.

As for `CCS(=O)(=O)NC1CN(c2cc3c(cc2F)OCC(NC)C3Cc2ccccc2)C1` (single isomer, unassigned) [Example 14a, Cis-N-(1-(4-benzyl-7-fluoro-3-(methylamino)chroman-6-yl)azetidin-3-yl)ethanesulfonamide], the Ki was at most 100 nM.

Consider `CNC1COc2cc(F)c(N3CC(NS(=O)(=O)c4cn(C)cn4)C3)cc2C1Cc1ccccc1` (single isomer, unassigned) [Example 15a, Cis-N-(1-(4-benzyl-7-fluoro-3-(methylamino)chroman-6-yl)azetidin-3-yl)-1-methyl-1H-imidazole-4-sulfonamide], for which the Ki is at most 10 nM.

On to `CNC1COc2cc(F)c(N3CC(NS(=O)(=O)c4cnn(C)c4)C3)cc2C1Cc1ccccc1` (single isomer, unassigned) [Example 17b, trans-N-(1-(4-benzyl-7-fluoro-3-(methylamino)chroman-6-yl)azetidin-3-yl)-1-methyl-1H-pyrazole-4-sulfonamide], for which the Ki was at most 10 nM.

For `CNC1COc2cc(F)c(N3CC(NS(=O)(=O)c4cnn(C)c4)C3)cc2C1Cc1ccccc1` (single isomer, unassigned) [Example 17a, Cis-N-(1-(4-benzyl-7-fluoro-3-(methylamino)chroman-6-yl)azetidin-3-yl)-1-methyl-1H-pyrazole-4-sulfonamide], the Ki was at most 10 nM.

In the case of `CNC1COc2cc(F)c(N3CC(NS(=O)(=O)c4cn(C)nn4)C3)cc2C1Cc1ccccc1` (single isomer, unassigned) [Example 18a, Cis-N-(1-(4-benzyl-7-fluoro-3-(methylamino)chroman-6-yl)azetidin-3-yl)-1-methyl-1H-1,2,3-triazole-4-sulfonamide], the Ki was at most 10 nM.

As for `CNC1COc2cc(F)c(N3CC(NS(=O)(=O)c4cn(C)cn4)C3)cc2C1Cc1ccccc1` (single isomer, unassigned) [Example 15b, trans-N-(1-(4-benzyl-7-fluoro-3-(methylamino)chroman-6-yl)azetidin-3-yl)-1-methyl-1H-imidazole-4-sulfonamide], the Ki was at most 10 nM.

On to `CNC1COc2cc(F)c(N3CC(NS(=O)(=O)c4cn(C)nn4)C3)cc2C1Cc1ccccc1` (single isomer, unassigned) [Example 18b, trans-N-(1-(4-benzyl-7-fluoro-3-(methylamino)chroman-6-yl)azetidin-3-yl)-1-methyl-1H-1,2,3-triazole-4-sulfonamide], for which the Ki was at most 10 nM.

As for `CCCS(=O)(=O)NC1CN(c2ccc3c(c2)[C@H](Cc2ccccc2)[C@H](N)CO3)C1` (relative stereo) [Example 20, Cis-N-(1-(3-amino-4-benzylchroman-6-yl)azetidin-3-yl)propane-1-sulfonamide], the Ki is at most 100 nM.

Take `CCS(=O)(=O)NC1CN(c2cc3c(cc2F)OCC(NC)C3Cc2ccccc2)C1` (single isomer, unassigned) [Example 14b, trans-N-(1-(4-benzyl-7-fluoro-3-(methylamino)chroman-6-yl)azetidin-3-yl)ethanesulfonamide]: the Ki is at most 100 nM.

On to `CCCS(=O)(=O)NC1CN(c2cc3c(cc2F)OCC(NC)C3Cc2ccccc2)C1` (single isomer, unassigned) [Example 16b, trans-N-(1-(4-benzyl-7-fluoro-3-(methylamino)chroman-6-yl)azetidin-3-yl)propane-1-sulfonamide], for which the Ki was at most 10 nM.

As for `CNC1COc2cc(F)c(N3CC(NS(=O)(=O)CC4CC4)C3)cc2C1Cc1ccccc1` (single isomer, unassigned) [Example 19b, trans-N-(1-(4-benzyl-7-fluoro-3-(methylamino)chroman-6-yl)azetidin-3-yl)-1-cyclopropylmethanesulfonamide], the Ki was at most 10 nM.
